According to patent US20130090371A1, “METHODS AND COMPOSITIONS FOR INHIBITION OF BETA2-ADRENERGIC RECEPTOR DEGRADATION” (PRESIDENT AND FELLOWS OF HARVARD COLLEGE, priority 2010, published 2013):
d = 2'-deoxy (DNA)

How the values were obtained:
cell surface β2AR [1] = assay: Flowcytometry of cell surface β2AR in 293.β2AR* (recycle-deficient FLAG-β2AR, β2ARt) cells; type: cell-based, human
Protocol: (§1) Cell Culture, Transfection and Drug Treatments. […] Transfection of DNA into 293T cells was using FuGene 6 reagent (Roche) according to manufacturer's instruction. […] FDPS-specific siRNA (sense [NT], antisense [NT]) was from Sigma-Aldrich and the non-targeting Scrambled siRNA was from Thermo Scientific. […] Cells were washed with PBS and incubated with diluted TrypLE Express Enzyme (Invitrogen) (1:10 dilutio in PBS) for exactly 1 min at room temperature followed by adding regular medium immediately. […] Then cells were washed again and passed through cell strainers to remove cell clumps before being sorted on a FACS Aria multicolor high speed sorter (Becton Dickinson). During FACS analysis, the population of single cell was gated to measured FITC (green) signal. Background of auto-fluorescence was identified by plotting FITC with PE (red) or SSC (side scatter) signal. FITC-positive cells were collected in calcium and magnesium-free PBS with 20% FBS. Collected cells were cultured for repeating FACS sorting. […] The population of PI-negative single cell was gated to measured FITC signal.

cell surface β2AR [2] = assay: Flowcytometry of cell surface β2AR in 293.β2AR^WT cells; type: cell-based, human
Protocol: as §1

cellular cholesterol = assay: Cellular cholesterol measurement in 293.β2AR* cells; type: cell-based, human
Protocol: Error bars represented the standard deviations of replicates.
Cellular cholesterol measurement. 1×10^6 cells were cultured in each well of 6-well plates in DMEM containing 10% FBS for 3 d until fully confluent. Then drug treatments were performed in either DMEM containing 10% FBS or Opti-MEM without serum in duplicates. Cells were transferred to microcentrifuge tubes, washed twice with ice-cold PBS. Total lipids were extracted by resuspending and lysing cells in 300 μL of Chloroform: Isopropanol: Triton X-100 (7:11:0.1). The organic phase was collected after centrifugation at 12,000 rpm for 10 min and then evaporated at 50° C. for 3-4 h. Lipids were resuspend in 200 μL of Cholesterol Reaction buffer included in a commercial cholesterol measurement kit (Invitrogen) by votexing. Cholesterol was measured by the cholesterol oxidase method according to the manufacturer's directions. 2 or 4 measurements were taken for each replicate sample.

[3] = tested on: human airway smooth muscle cells; assay: Optical Magnetic Twisting Cytometry (elastic modulus) of HASM cells; conditions: for decrease of stiffness compared to baseline: 1 mM isoproterenol, measured over 15 min
CaMKK2 = assay: qRT-PCR of CaMKK2 mRNA in primary HASM cells; type: cell-based, human; conditions: 50 nM siRNA; three days after transfection
β2ARt = biological target: T1, β2ARt (Homo sapiens, UniProt P07550); assay: Immunoblot of agonist-induced β2AR degradation in 293β2AR* / β2ARt cells; type: cell-based; conditions: after 3 hours of agonist induction (10 μM isoproterenol); vs empty vector
T1 construct: a distally truncated form (after residue 385) of β2AR (β2ARt); expressed in transfected cells; host or cells: HEK293 (293.β2AR*)
Protocol: β2AR ubiquitination and degradation assays. Cells expressing […] or β2ARt were subjected to 10 μM ISO (Sigma) stimulation, lysed in 0.5% NP-40 lysis buffer and immunoblotted with anti-FLAG-HRP (Sigma). For β2AR ubiquitination, β2ARt or wt-β2AR expressing cells were first incubated with 10 μM alprenolol antagonist (Sigma) for 15 min (to reduce constitutive background ubiquitination), stimulated with 10 μM ISO and lysed in buffer supplemented with 10 mM N-ethylmaleimide (NEM; Sigma) to inhibit deubiquitinase activity. Anti-FLAG EZview beads (Sigma) used for the IP were subjected to three 10 min washes with lysis buffer and resuspended in 50 μl 2βLDS sample buffer (Invitrogen) containing 10% β-mercaptoethanol (Sigma) and analyzed by immunoblotting.

FDPS = assay: Real-time RT-PCR of FDPS mRNA in 293β2AR* cells; type: cell-based, human; conditions: normalized to β-Actin
Protocol: FIGS. 4A-4D show FDPS regulates the amount of Cell Surface β2AR in 293βAR* cells. […]. […] Cells were transduced with Lentivirus expressing FDPS-specific shRNA or empty vector, or transfected with FDPS-specific siRNA or non-targeting Scrambled (SCR) siRNA. The RNA levels were determined by real time RT-PCR and normalized to that of β-Actin. Error bars represented the standard deviations of replicates. Statistic analysis was using student's t-test. […]. MFI: Mean fluorescence intensity.
Real-Time RT-PCR. Total RNA was isolated by using TRIzol (Invitrogen) and further cleaned up by using RNeasy Mini kit (Qiagen) with DNase I digestion. cDNA was synthesized by using oligo-dT primers and SuperScript III (Invitrogen). Real-time PCR was performed on ABI Prism 7300 with SYBR Green (Qiagene). The FDPS was amplified with primers FDPS-1F (5′-TGACCGGCAAAATTGGCACTGACAT-3′) (SEQ ID NO: 20) and FDPS-1R (5′-CCTTCACCCGGGCCACTTTCTCA-3′) (SEQ ID NO: 21). […]. The β-Actin control was amplified with primers (Forward, 5′-AAG GCC AAC CGC GAG AAG-3′ (SEQ ID NO: 28) and Reverse, 5′-GGC GTA CAG GGA TAG CAC-3′ (SEQ ID NO: 29)).

β2AR = assay: Immunoblot of β2AR protein in human airway smooth muscle (HASM) cells; conditions: 20 μM isoproterenol for 2 d; vs non targeting shRNA
Protocol: Error bars represented the standard deviations; Student t-test * p<0.05, n=2. […] Indirect Immunofluorescence staining of β2AR and phase contract images are shown.
Three days after the inhibitor treatment cell lysates were collected and analyzed by immunoblotting. Three repeats were done with similar results.
Immunoblot analysis. 48 h post DNA transfection, cells were wash with PBS and lysed with NP-40 lysing buffer (50 mM Tris-HCl pH7.5, 150 mM NaCl, 0.5% Nonidet P-40) containing protease inhibitor cocktail (Roche). Protein samples were separated on NuPAGE 10% Bis-Tris gels (Invitrogen) and transferred to nitrocellulose membranes (Bio-Rad). Immunoblot signals were developed using SuperSignal West Pico Chemiluminescent Substrate (Pierce, Rockford, Ill., USA) and quantified by a Luminescence Imager or exposed to X-ray films.

[4] = biological target: T2, NEDD4 E3 ubiquitin ligase (UniProt P46934-4 1-900, limits assumed); assay: co-immunoprecipitation and immunoblot (FIG. 8B)
T2 construct: also called ubiquitin ligase NEDD4
T2 sequence (looked up): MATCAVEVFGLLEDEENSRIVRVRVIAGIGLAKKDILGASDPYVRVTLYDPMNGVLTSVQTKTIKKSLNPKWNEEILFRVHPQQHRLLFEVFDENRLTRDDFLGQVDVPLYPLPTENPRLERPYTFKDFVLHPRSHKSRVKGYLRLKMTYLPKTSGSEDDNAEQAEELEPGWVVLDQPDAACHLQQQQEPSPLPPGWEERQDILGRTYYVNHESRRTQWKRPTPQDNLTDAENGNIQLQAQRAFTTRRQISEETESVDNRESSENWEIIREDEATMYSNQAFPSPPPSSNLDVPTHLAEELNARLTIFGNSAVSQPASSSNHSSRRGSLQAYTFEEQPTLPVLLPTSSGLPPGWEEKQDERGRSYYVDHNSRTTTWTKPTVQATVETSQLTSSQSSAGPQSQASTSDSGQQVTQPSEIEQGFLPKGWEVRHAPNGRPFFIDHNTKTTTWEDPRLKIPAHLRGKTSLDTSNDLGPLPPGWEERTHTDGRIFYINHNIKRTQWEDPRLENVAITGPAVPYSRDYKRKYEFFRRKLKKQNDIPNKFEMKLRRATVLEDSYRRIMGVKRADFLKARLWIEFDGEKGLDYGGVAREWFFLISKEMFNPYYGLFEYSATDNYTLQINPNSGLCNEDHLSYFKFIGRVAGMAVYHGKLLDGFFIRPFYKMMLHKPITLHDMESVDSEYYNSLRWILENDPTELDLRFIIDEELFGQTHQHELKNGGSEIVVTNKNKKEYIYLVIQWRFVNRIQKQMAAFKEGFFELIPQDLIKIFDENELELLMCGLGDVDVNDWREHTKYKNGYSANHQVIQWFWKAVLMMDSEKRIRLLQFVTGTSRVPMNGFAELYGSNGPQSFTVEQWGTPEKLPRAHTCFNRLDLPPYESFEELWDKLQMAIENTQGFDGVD

**Q.** `NCCCC(O)(P(=O)([O-])O)P(=O)(O)O.[Na+]` [alendronate, (4-amino-1-hydroxybutylidene)bisphosphonic acid monosodium salt] was tested. Which “cell surface β2AR levels after agonist induction” value (cell surface β2AR [1]; 50 or 500 μM for 1 d, then 10 μM isoproterenol 3 h) did it give?
**A.** dose dependent increase of the cell surface β2AR levels

**Q.** What about the “surface β2AR levels prior and post agonist induction” value (cell surface β2AR [1]; treatment for 2 days, data not shown) of the same molecule?
**A.** increase the surface β2AR levels

**Q.** What about the “amount of cell surface β2AR” value (cell surface β2AR [2]; 50 μM alendronate alone for 1 d) of the same molecule?
**A.** increased the amount of cell surface β2AR

**Q.** And the “cell surface β2AR levels before and after agonist induction” value (cell surface β2AR [2]; 50 μM for 1 d, then 10 μM isoproterenol 1 h)?
**A.** increased the cell surface β2AR levels both before and after agonist induction

**Q.** What about the “effect on cellular cholesterol” value (cellular cholesterol; 50 μM ALN or 100 μg/mL pravastatin for 1 d, serum containing medium) of the same molecule?
**A.** neither alendronate nor pravastatin could significantly lower the cellular cholesterol

**Q.** And the “effect on cellular cholesterol” value (cellular cholesterol; 50 μM for 1 d, serum-free medium)?
**A.** not sufficient to lower cellular cholesterol

**Q.** With `CC(C)CCC[C@@H](C)[C@H]1CC[C@H]2[C@@H]3CC=C4C[C@@H](O)CC[C@]4(C)[C@H]3CC[C@]12C` [cholesterol] as the molecule, how does the “effect on FDPS blockade of β2AR down-regulation” value (cell surface β2AR [2]; cholesterol supplementation (FIG. 6A)) read?
**A.** reverses the effects of FDPS blockade

**Q.** For `CC(C)NCC(O)c1ccc(O)c(O)c1` (stereo not shown) [isoproterenol], which “decrease of stiffness compared to baseline” value ([3]; FDPS knockdown (sample) cells) is on record?
**A.** ~15%

**Q.** And the “decrease of stiffness compared to baseline” value ([3]; control cells)?
**A.** ~40%

**Q.** `CC[C@H](C)C(=O)O[C@H]1C[C@H](O)C=C2C=C[C@H](C)[C@H](CC[C@@H](O)C[C@@H](O)CC(=O)O)[C@H]21` [pravastatin] was tested. Which “effect on amount of cell surface β2AR” value (cell surface β2AR [1]; 100 μg/mL for 1 d) did it give?
**A.** no significant effect

**Q.** What about the “effect on amount of cell surface β2AR” value (cell surface β2AR [2]; 100 μg/mL for 1 d) of the same molecule?
**A.** no significant effect

**Q.** What about the cellular cholesterol lowering (cellular cholesterol; 1 μg/mL for 1 d, serum-free medium) of the same molecule?
**A.** 19.9%

**Q.** For “AA496068 EST shRNA: shRNA TCTGCATTTCCTGTAATTTTGCATGC (SEQ ID NO: 2) targeting EST AA496068 upstream of latrophilin 2”, which “cell surface β2AR, mean fluorescence intensity” value (cell surface β2AR [1]; β2ARt-expressing 293 cells, vehicle or ISO 16 h, vs non-targeting shRNA) is on record?
**A.** An increase in the mean fluorescence intensity values

**Q.** “ARRDC3-specific shRNA: shRNA sequence CCACAGACACCACTCGCTACCTCATT (SEQ ID NO: 24)” was tested. Which “higher level of cell surface receptor after agonist stimulation” value (cell surface β2AR [1]; β2ARt cells, vs non-targeting shRNA) did it give?
**A.** > 20%

**Q.** For “CaMKK2 siRNA #1: 5′ GCUCCUAUGGUGUCGUCAAdTdT (SEQ ID NO: 32), MISSION siRNA from Sigma (GCUCCUAUGGUGUCGUCAATT; further chemistry not given here)”, which “knockdown of CaMKK2 expression” value (CaMKK2) is on record?
**A.** about 90%

**Q.** “CaMKK2 siRNA #2: 5′ UUGACGACACCAUAGGAGCdTdT (SEQ ID NO: 33), MISSION siRNA from Sigma (UUGACGACACCAUAGGAGCTT; further chemistry not given here)” was tested. Which “knockdown of CaMKK2 expression” value (CaMKK2) did it give?
**A.** about 90%

**Q.** Which results are given for “FDPS-specific shRNA: lentiviral shRNA clone, hairpin sequence 5′-AGCGGAGAAAGTGACCTAGAGATTG-3′ (SEQ ID NO: 20) (AGCGGAGAAAGTGACCTAGAGATTG)”?
**A.** amount of β2AR by immunoblot (β2ARt): increased amount of β2AR; down regulation of FDPS mRNA level (knockdown efficiency) (FDPS): about 10%; baseline elastic modulus (t=0) ([3]; FDPS knockdown cells vs control cells): approximately two times lower; total amount of β2AR (β2AR): upregulation of β2AR

**Q.** What does the source list for “FDPS-specific siRNA: sense 5′-cca ugu aca ugg cag gaa u(dT)(dT)-3′, antisense 5′-auu ccu gcc aug uac aug g(dT)(dT)-3′, from Sigma-Aldrich (sense CCAUGUACAUGGCAGGAAU; antisense AUUCCUGCCAUGUACAUGG; RNA, 3' dTdT, backbone not given here)”?
**A.** increase in cell surface β2AR (cell surface β2AR [1]; both prior and post agonist induction (10 μM isoproterenol 1 or 3 h), vs non-targeting control siRNA): about 2 fold; down regulation of FDPS mRNA level (knockdown efficiency) (FDPS): about 80%

**Q.** With Methyl-beta-cyclodextrin [MbCD] as the molecule, how does the “cell surface β2AR post agonist induction” value (cell surface β2AR [1]; 1 or 2 mM for 1 h, then 10 μM isoproterenol 1 h) read?
**A.** increased amount of cell surface β2AR post agonist induction

**Q.** And the cellular cholesterol lowering (cellular cholesterol; 2 mM for 1 h, medium containing 10% FBS)?
**A.** 35.3%

B1: ARRDC3ΔΔPPXY (double PPXY motif mutant of ARRDC3) (other, human, UniProt Q96B67 1-414, looked up)
chain: MVLGKVKSLTISFDCLNDSNVPVYSSGDTVSGRVNLEVTGEIRVKSLKIHARGHAKVRWTESRNAGSNTAYTQNYTEEVEYFNHKDILIGHERDDDNSEEGFHTIHSGRHEYAFSFELPQTPLATSFEGRHGSVRYWVKAELHRPWLLPVKLKKEFTVFEHIDINTPSLLSPQAGTKEKTLCCWFCTSGPISLSAKIERKGYTPGESIQIFAEIENCSSRMVVPKAAIYQTQAFYAKGKMKEVKQLVANLRGESLSSGKTETWNGKLLKIPPVSPSILDCSIIRVEYSLMVYVDIPGAMDLFLNLPLVIGTIPLHPFGSRTSSVSSQCSMNMNWLSLSLPERPEAAASAAEVVTEEQRRNNLAPVSACDDFERALQGPLFAYIQEFRFLPAALASEIDPNPDQSADDRPSCPSR
notes: also called double PPXY ARRDC3 mutant; double PPXY mutant
**Q.** Does B1 bind [4]?
**A.** no binding
